The record followed here is patent US20260274799A1, “HETEROCYCLIC DERIVATIVES, COMPOSITIONS AND USES THEREOF” (DANATLAS PHARMACEUTICALS CO., LTD., priority 2023, published 2026).

For the assay, the target named is T1, PPARγ-LBD (UniProt ID: P37231-2) (Homo sapiens, UniProt P37231).
T1 construct: PPARγ-LBD (UniProt ID: P37231-2) was expressed and purified in insect system; made in house
T1 sequence (P37231 238-503 limits assumed): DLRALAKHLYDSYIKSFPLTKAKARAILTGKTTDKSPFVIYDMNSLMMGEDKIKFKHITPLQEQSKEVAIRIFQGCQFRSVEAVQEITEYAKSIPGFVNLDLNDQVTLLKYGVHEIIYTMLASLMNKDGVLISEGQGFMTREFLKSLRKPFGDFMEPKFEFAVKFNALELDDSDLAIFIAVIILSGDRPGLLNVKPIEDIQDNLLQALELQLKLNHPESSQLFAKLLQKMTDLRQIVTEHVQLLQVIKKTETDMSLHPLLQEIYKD
In words: PPARγ-SMRT recruitment assay (TR-FRET). The format is biochemical. The following applies: for Emax: 1 h, read-out: Top %; for EC50: TR-FRET, SMRT peptide recruitment to PPARγ-LBD, 120 min pre-incubation. On the procedure: PPARγ TR-FRET assay was initiated to evaluate potential activatory effect of the compounds of the present disclosure for SMRT recruitment to PPARγ protein. PPARγ-LBD (UniProt ID: P37231-2) was expressed and purified in insect system and stored at −80° C. in aliquots. Biotinylated SMRT peptide was synthesized (Biotin-[…]). 5 μL protein solution mixture consisting of 10 nM PPARγ-LBD and 2 nM Anti-His Eu (Cisbio, 61HISKLA) in assay buffer (25 mM HEPES pH7.4, 25 mM KCl, 1 mM EDTA, 0.01% BSA, 0.01% Tween-20, 1 mM TCEP) was added to 384-well plates containing duplicate 10-point dose response titration of compounds in 5 μL assay buffer (1% f.c. DMSO(v/v)). After 120 min pre-incubation at room temperature, 5 μL peptide solution mixture consisting of 50 nM Biotin-SMRT peptide and 25 nM Streptavidin-XL665 (Cisbio, 610SAXLA) added to plates. Plates were incubated for 60 min. and read in CLARIOstar Plus plate reader with Ex/Em 620 nm/[…]. Average TR-FRET ratio of high control (Wells with 10 uM control compound) was calculated as High Control (HC). Average TR-FRET ratio of low control (Wells with 1% DMSO) was calculated as Low control (LC). For one compound, top % is the max value of % Activation.
EC50 values were determined by fitting the data to the standard 4 parameters with Hill Slope using GraphPad Prism software. […] ND: No Determine.
A general note: In TR-FRET formats the signal depends on donor and acceptor labels being close together.

The mark [1] stands for this setting: max value of % Activation, high control 10 uM control compound, low control 1% DMSO.

As usually defined, the EC50 is the concentration at which the effect is half-maximal.

Like-named read-outs stand apart in the source and are kept apart here.

On to `Cc1ncccc1C#Cc1c(F)cc2[nH]c(-c3cc(C#N)ccc3S(C)(=O)=O)cc(=O)c2c1F` [Example 29, 3-(5,7-Difluoro-6-((2-methylpyridin-3-yl)ethynyl)-4-oxo-1,4-dihydroquinolin-2-yl)-4-(methylsulfonyl)benzonitrile], for which the EC50 is under 100 nM. The Emax under setting [1] came out at 357%.

In the case of `COc1ccccc1C#Cc1c(F)cc2[nH]c(-c3cc(C#N)ccc3S(C)(=O)=O)cc(=O)c2c1F` [Example 30, 3-(5,7-Difluoro-6-((2-methoxyphenyl)ethynyl)-4-oxo-1,4-dihydroquinolin-2-yl)-4-(methylsulfonyl)benzonitrile], the EC50 is under 100 nM. Also, the Emax under setting [1] turned out to be 283%. Consider `Cc1cccc(C#Cc2c(F)cc3[nH]c(-c4cc(C#N)ccc4S(C)(=O)=O)cc(=O)c3c2F)n1` [Example 31, 3-(5,7-Difluoro-6-((6-methylpyridin-2-yl)ethynyl)-4-oxo-1,4-dihydroquinolin-2-yl)-4-(methylsulfonyl)benzonitrile], for which the EC50 was under 100 nM. Further, the Emax under setting [1] stood at 181%. In turn, `Cc1cncc(C)c1C#Cc1c(F)cc2[nH]c(-c3cc(C#N)ccc3S(C)(=O)=O)cc(=O)c2c1F` [Example 32, 3-(6-((3,5-Dimethylpyridin-4-yl)ethynyl)-5,7-difluoro-4-oxo-1,4-dihydroquinolin-2-yl)-4-(methylsulfonyl)benzonitrile] returned an EC50 of under 100 nM. Further, the Emax under setting [1] was found to be 343%.

Turning to `CS(=O)(=O)c1ccc(C#N)cc1-c1cc(=O)c2c(F)c(C#Cc3ccccc3Cl)c(F)cc2[nH]1` [Example 33, 3-(6-((2-Chlorophenyl)ethynyl)-5,7-difluoro-4-oxo-1,4-dihydroquinolin-2-yl)-4-(methylsulfonyl)benzonitrile], the EC50 is under 100 nM. Also, under setting [1], the Emax was 502%. The corresponding values for `CS(=O)(=O)c1ccc(C#N)cc1-c1cc(=O)c2c(F)c(C#CC3CCOC3)c(F)cc2[nH]1` (stereo not drawn) [Example 34, 3-(5,7-Difluoro-4-oxo-6-((tetrahydrofuran-3-yl)ethynyl)-1,4-dihydroquinolin-2-yl)-4-(methylsulfonyl)benzonitrile] are under 100 nM and 290%. In the same order, the values of `Cc1noc(C)c1C#Cc1c(F)cc2[nH]c(-c3cc(C#N)ccc3S(C)(=O)=O)cc(=O)c2c1F` [Example 35, 3-(6-((3,5-Dimethylisoxazol-4-yl)ethynyl)-5,7-difluoro-4-oxo-1,4-dihydroquinolin-2-yl)-4-(methylsulfonyl)benzonitrile] are under 100 nM and 243%. `CS(=O)(=O)c1ccc(C#N)cc1-c1cc(=O)c2c(F)c(C#Cc3ccccc3OC(F)(F)F)c(F)cc2[nH]1` [Example 36, 3-(5,7-Difluoro-4-oxo-6-((2-(trifluoromethoxy)phenyl)ethynyl)-1,4-dihydroquinolin-2-yl)-4-(methylsulfonyl)benzonitrile] returned an EC50 of under 100 nM. The Emax under setting [1] amounted to 322%. Turning to `CS(=O)(=O)c1ccc(C#N)cc1-c1cc(=O)c2c(F)c(C#Cc3ccccc3OC(F)F)c(F)cc2[nH]1` [Example 37, 3-(6-((2-(Difluoromethoxy)phenyl)ethynyl)-5,7-difluoro-4-oxo-1,4-dihydroquinolin-2-yl)-4-(methylsulfonyl)benzonitrile], the EC50 was under 100 nM. Further, under setting [1], the Emax amounted to 406%. `COc1cccnc1C#Cc1c(F)cc2[nH]c(-c3cc(C#N)ccc3S(C)(=O)=O)cc(=O)c2c1F` [Example 38, 3-(5,7-Difluoro-6-((3-methoxypyridin-2-yl)ethynyl)-4-oxo-1,4-dihydroquinolin-2-yl)-4-(methylsulfonyl)benzonitrile]: the EC50 was under 100 nM. `Cc1ccc(C#Cc2c(F)cc3[nH]c(-c4cc(C#N)ccc4S(C)(=O)=O)cc(=O)c3c2F)cc1` [Example 39, 3-(5,7-Difluoro-4-oxo-6-(p-tolylethynyl)-1,4-dihydroquinolin-2-yl)-4-(methylsulfonyl)benzonitrile] displayed an EC50 of under 100 nM. For the same molecule, the Emax under setting [1] turned out to be 406%. The molecule `CS(=O)(=O)c1ccc(C#N)cc1-c1cc(=O)c2c(F)c(C#Cc3cnc4cccnn34)c(F)cc2[nH]1` [Example 40, 3-(5,7-Difluoro-6-(imidazo[1,2-h]pyridazin-3-ylethynyl)-4-oxo-1,4-dihydroquinolin-2-yl)-4-(methylsulfonyl)benzonitrile] displayed an EC50 of under 100 nM. Besides, under setting [1], the Emax turned out to be 237%. In turn, `CS(=O)(=O)c1ccc(C#N)cc1-c1cc(=O)c2c(F)c(C#Cc3ccccc3C#N)c(F)cc2[nH]1` [Example 42, 3-(6-((2-Cyanophenyl)ethynyl)-5,7-difluoro-4-oxo-1,4-dihydroquinolin-2-yl)-4-(methylsulfonyl)benzonitrile] returned an EC50 of under 100 nM. In addition, under setting [1], the Emax was 231%. `COc1nccnc1C#Cc1c(F)cc2[nH]c(-c3cc(C#N)ccc3S(C)(=O)=O)cc(=O)c2c1F` [Example 43, 3-(5,7-Difluoro-6-((3-methoxypyrazin-2-yl)ethynyl)-4-oxo-1,4-dihydroquinolin-2-yl)-4-(methylsulfonyl)benzonitrile] had an EC50 of under 100 nM. For the same molecule, the Emax under setting [1] turned out to be 237%. `CS(=O)(=O)c1ccc(C#N)cc1-c1cc(=O)c2c(F)c(C#Cc3ccccc3C(F)(F)F)c(F)cc2[nH]1` [Example 44, 3-(5,7-Difluoro-4-oxo-6-((2-(trifluoromethyl)phenyl)ethynyl)-1,4-dihydroquinolin-2-yl)-4-(methylsulfonyl)benzonitrile] showed an EC50 of under 100 nM. For the same molecule, under setting [1], the Emax worked out at 286%.

As to `CC1(C#Cc2c(F)cc3[nH]c(-c4cc(C#N)ccc4S(C)(=O)=O)cc(=O)c3c2F)COC1` [Example 45, 3-(5,7-Difluoro-6-((3-methyloxetan-3-yl)ethynyl)-4-oxo-1,4-dihydroquinolin-2-yl)-4-(methylsulfonyl)benzonitrile], the EC50 is under 100 nM. Moreover, the Emax under setting [1] is 249%.

Molecule `CCS(=O)(=O)c1ccc(C#N)cc1-c1cc(=O)c2c(F)c(C#CC3COC3)c(F)cc2[nH]1` [Example 46, 3-(5,7-Difluoro-6-(oxetan-3-ylethynyl)-4-oxo-1,4-dihydroquinolin-2-yl)-4-(ethylsulfonyl)benzonitrile] came in with an EC50 of under 100 nM. In addition, under setting [1], the Emax is 174%.

In the case of `CS(=O)(=O)c1ccc(C#N)cc1-c1cc(=O)c2c(F)c(C#Cc3ccncc3OC(F)F)c(F)cc2[nH]1` [Example 47, 3-(6-((3-(Difluoromethoxy)pyridin-4-yl)ethynyl)-5,7-difluoro-4-oxo-1,4-dihydroquinolin-2-yl)-4-(methylsulfonyl)benzonitrile], the Emax is 376% and the concentration for a half-maximal effect (EC50) is under 100 nM.

With `CC(C)(C#Cc1c(F)cc2[nH]c(-c3cc(C#N)ccc3S(C)(=O)=O)cc(=O)c2c1F)S(C)(=O)=O` [Example 48, 3-(5,7-Difluoro-6-(3-methyl-3-(methylsulfonyl)but-1-yn-1-yl)-4-oxo-1,4-dihydroquinolin-2-yl)-4-(methylsulfonyl)benzonitrile], the EC50 is under 100 nM. Take `COCCC#Cc1c(F)cc2[nH]c(-c3cc(C#N)ccc3S(C)(=O)=O)cc(=O)c2c1F` [Example 49, 3-(5,7-Difluoro-6-(4-methoxybut-1-yn-1-yl)-4-oxo-1,4-dihydroquinolin-2-yl)-4-(methylsulfonyl)benzonitrile]: the EC50 was under 100 nM. As to `COC(C)(C)C#Cc1c(F)cc2[nH]c(-c3cc(C#N)ccc3S(C)(=O)=O)cc(=O)c2c1F` [Example 50, 3-(5,7-Difluoro-6-(3-methoxy-3-methylbut-1-yn-1-yl)-4-oxo-1,4-dihydroquinolin-2-yl)-4-(methylsulfonyl)benzonitrile], the EC50 was under 100 nM. The Emax under setting [1] is 372%. Consider `CS(=O)(=O)c1ccc(C#N)cc1-c1cc(=O)c2c(F)c(C#Cc3ccccc3F)c(F)cc2[nH]1` [Example 51, 3-(5,7-Difluoro-6-((2-fluorophenyl)ethynyl)-4-oxo-1,4-dihydroquinolin-2-yl)-4-(methylsulfonyl)benzonitrile], for which the EC50 is under 100 nM. Also, the Emax under setting [1] is 447%. In the case of `CS(=O)(=O)c1ccc(C#N)cc1-c1cc(=O)c2c(F)c(C#CC3CCOCC3)c(F)cc2[nH]1` [Example 52, 3-(5,7-Difluoro-4-oxo-6-((tetrahydro-2H-pyran-4-yl)ethynyl)-1,4-dihydroquinolin-2-yl)-4-(methylsulfonyl)benzonitrile], the EC50 was under 100 nM.
